In US20110173718A1, “HERBICIDE TOLERANT PLANTS” (SYNGENTA CROP PROTECTION, INC., priority 2008, published 2011):
Several values for one entry are separate records, joined by “and”; a condition that tells them apart may be missing. Equal values may be shown once.

Tests used:
[1] = system: Arabidopsis HST transgenic tobacco plants; assay: Glasshouse spray test, Arabidopsis HST transgenic tobacco; assay type: in vivo; details: for Damage % 5 DAT / Damage % 10 DAT: 10 g/ha, individual T0 lines
Text: For example the Arabidopsis HST SEQ ID # 11 is cloned behind a double 35s CMV promoter sequence and a TMV translational enhancer sequence and in front of the 3′ terminator from the nos gene. This expression cassette is ligated into pMJB1 (described in WO98/20144) and then into pBIN19 and then transformed into Agrobacterium tuniqfaciens strains LBA4404 prior to plant transformation.
For example, the full length Arabidopsis HST seq ID # 11 is fused to the TMV translational enhancer sequence (SEQ ID #33) by overlapping PCR and, at the same time, 5′ XhoI site and a 3′KpnI site are added by PCR. Site-directed mutagenesis is performed to remove an internal XhoI site. The TMV/HPPD fusion is removed from the pBIN19 by digestion with XhoI/KpnI and is replaced by the TMV/HST fusion (SEQ ID #34). The TMV/HST fusion is now cloned behind a double 35s promoter and in front of the 3′ terminator from the nos gene. Again the modified pBIN19 vector (‘pBinAT HST’) is then transformed into Agrobacterium tumefaciens strain LBA4404.
A master plate of Agrobacterium tumefaciens containing the binary vector pBinAT HST (described above) or analogous binary vector comprising a different HST is used to inoculate 10 ml LB containing 100 mg/1 Rifampicin plus 50 mg/1 Kanamycin using a single bacterial colony. This is incubated overnight at 28° C. shaking at 200 rpm. This entire overnight culture is used to inoculate a 50 ml volume of LA (plus antibiotics). Again this is cultured overnight at 28° C. shaking at 200 rpm. The Agrobacterium cells are pelleted by centrifuging at 3000 rpm for 15 minutes then resuspended in MS medium with 30 g/1 sucrose, pH 5.9 to an OD ([…])=0.6. This suspension is dispensed in 25 ml aliquots into petri dishes.
Clonal micro-propagated tobacco shoot cultures are used to excise young (not yet fully expanded) leaves. The mid rib and outer leaf margins are removed and discarded, the remaining lamina is cut into 1 cm squares. These are transferred to the Agrobacterium suspension for 20 minutes. Explants are then removed, dabbed on sterile filter paper to remove excess suspension then transferred to NBM medium (MS medium, 30 g/1 sucrose, 1 mg/1 BAP, 0.1 mg/1 NAA, pH 5.9, solidified with 8 g/1 Plantagar), with the abaxial surface of each explant in contact with the medium. Approximately 7 explants are transferred per plate, which are then sealed then maintained in a lit incubator at 25° C., 16 hour photoperiod for 3 days.
Explants are then transferred to NBM medium containing 100 mg/1 Kanamycin plus antibiotics to prevent further growth of Agrobacterium (200 mg/1 timentin with 250 mg/1 carbenicillin). Further subculture on to this same medium is then performed every 2 weeks.
As shoots start to regenerate from the callusing leaf explants these are removed to Shoot elongation medium (MS medium, 30 g/1 sucrose, 8 g/1 Plantagar, 100 mg/1 Kanamycin, 200 mg/1 timentin, 250 mg/1 carbenicillin, pH 5.9). Stable transgenic plants readily root within 2 weeks. To provide multiple plants per event to ultimately allow more than one herbicide test per transgenic plant all rooting shoots are micropropagated to generate 3 or more rooted clones.
Putative transgenic plants that are rooting and show vigorous shoot growth on the medium incorporating Kanamycin are analysed by PCR using primers that amplified a 500 bp fragment within the Arabidopsis HST transgene.
Rooted transgenic T0 plantlets are transferred from agar and potted into 50% peat, 50% John Innes soil no 3 or, for example, MetroMix® 380 soil (Sun Gro Horticulture, Bellevue, Wash.) with slow-release fertilizer in 3 inch round or 4 inch square pots and left regularly watered to establish for 8-12 d in the glass house. Glass house conditions are about 24-27° C. day; 18-21° C. night and approximately a 14 h (or longer in UK summer) photoperiod. Humidity is ˜65% and light levels up to 2000 μmol/m^2 at bench level. […]

weeds = assay: Glasshouse weed control by HST/HPPD (mesotrione) mixtures, post-emergence; assay type: in vivo; details: 14 DAT; for % damage, mesotrione alone: post-emergence, mesotrione 1 g/ha
Protocol: Weed seeds are planted out in trays containing suitable soil (for example 50% peat, 50% John Innes soil no 3) and grown in the glass house conditions under 24-27° C. day; 18-21° C. night and approximately a 14 h (or longer in UK summer) photoperiod. Humidity is ˜65% and light levels up to 2000 μmol/m^2 at bench level. Trays are sprayed with test chemicals dissolved in water with 0.2-0.25% X-77 surfactant and sprayed from a boom on a suitable track sprayer moving at about 2 mph in a suitable track sprayer (for example a DeVries spray chamber with the nozzle about 2 inches from the plant tops). Spray volume is suitably 500-1000 l/ha. Sprays are carried out both pre-emergence and over small plants at about 7-12 d post-emergence
Plants are assessed 14 DAT and herbicidal damage is scored on a scale from 0 to 100%. The HST inhibitor compound 2.30 (designated compound A in table 16 and 17), haloxydine (compound 1.1) and compound 2.13 (designated compound AE in tables 16 and 17) are sprayed at rates between 0 and 500 g/ha.

With `CS(=O)(=O)c1ccc(C(=O)C2C(=O)CCCC2=O)c([N+](=O)[O-])c1` [Mesotrione, mesotrione, reference compound] the “Damage % 5 DAT” value ([1]; T0 line 332) was 30%, the “Damage % 5 DAT” value ([1]; T0 line 351) was 50% and the “Damage % 5 DAT” value ([1]; T0 line 367) was 25%. The “Damage % 5 DAT” value ([1]; T0 line 404) was 45%, the “Damage % 5 DAT” value ([1]; T0 line 426) was 45% and the “Damage % 10 DAT” value ([1]; T0 line 332) was 10%. The “Damage % 10 DAT” value ([1]; T0 line 351) was 25%, the “Damage % 10 DAT” value ([1]; T0 line 367) was 10% and the “Damage % 10 DAT” value ([1]; T0 line 404) was 20%. The “Damage % 10 DAT” value ([1]; T0 line 426) was 20%, the “ht (herbicidal damage)” value ([1]; Arabidopsis HST T0 tobacco events (one value per event), 15 g/ha of mesotrione, 21 DAT) was 80 and 90 and 85 and 70 and 75 and the damage (weeds; 1 g/ha, pre- and post-emergence sprays) was less than 10%. The “% damage, mesotrione alone” value (weeds; ALOMY) was 0%, the “% damage, mesotrione alone” value (weeds; ECHCG) was 8% and the “% damage, mesotrione alone” value (weeds; SETFA) was 0%.
